Data from PubChem BioAssay (NCI).
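Assay format: 96-well plates, 48-hour exposure. Here, GI50 denotes the concentration required for 50% inhibition of growth. TGI marks complete inhibition of growth.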

Tests used:
Assay in all cases: NCI tumour cell line growth inhibition, 48 h
[1] = tested on: MDA-MB-231 breast
[2] = tested on: LOX IMVI melanoma
[3] = tested on: OVCAR-4 ovarian
[4] = tested on: SF-295 CNS
[5] = tested on: SNB-19 CNS
[6] = tested on: NCI-H23 lung
[7] = tested on: RPMI-8226 leukemia
[8] = tested on: T-47D breast
[9] = tested on: HOP-62 NSCLC
[10] = tested on: UACC-62 melanoma
[11] = tested on: NCI-H460 lung
[12] = tested on: HT29 colon
[13] = tested on: CCRF-CEM leukemia
[14] = tested on: HCT-116 colon
[15] = tested on: TK-10 renal
[16] = tested on: HL-60(TB) leukemia
[17] = tested on: DU-145 prostate
[18] = tested on: HS 578T breast
[19] = tested on: SR leukemia
[20] = tested on: PC-3 prostate
[21] = tested on: SF-539 CNS
[22] = tested on: HCT-15 colon
[23] = tested on: SW-620 colon
[24] = tested on: A498 renal
[25] = tested on: SK-MEL-2 melanoma
[26] = tested on: HOP-92 NSCLC
[27] = tested on: COLO 205 colon
[28] = tested on: 786-0 renal
[29] = tested on: OVCAR-3 ovarian
[30] = tested on: ACHN renal
[31] = tested on: BT-549 breast
[32] = tested on: MDA-MB-435
[33] = tested on: UO-31 renal
[34] = tested on: NCI-H226 lung
[35] = tested on: U251 CNS
[36] = tested on: M14 melanoma
[37] = tested on: CAKI-1 renal
[38] = tested on: NCI-H522 lung
[39] = tested on: HCC-2998 colon
[40] = tested on: SN12C renal
[41] = tested on: SF-268 CNS
[42] = tested on: OVCAR-8 ovarian
[43] = tested on: MALME-3M melanoma
[44] = tested on: IGROV1 ovarian
[45] = tested on: MCF7 breast
[46] = tested on: KM12 colon
[47] = tested on: A549 NSCLC
[48] = tested on: K-562 leukemia
[49] = tested on: SNB-75 CNS
[50] = tested on: NCI/ADR-RES ovarian
[51] = tested on: UACC-257 melanoma
[52] = tested on: SK-OV-3 ovarian
[53] = tested on: MOLT-4 leukemia
[54] = tested on: RXF 393 renal
[55] = tested on: SK-MEL-28 melanoma
[56] = tested on: OVCAR-5 ovarian
[57] = tested on: SK-MEL-5 melanoma

For Cc1ccc2c(c1)c(C1=C(c3cn(C)c4ccccc34)C(=O)NC1=O)cn2C, the GI50 [1] was 6.93 µM, the TGI [1] was > 25 µM and the GI50 [2] was 2.93 µM. The TGI [2] was > 23.4 µM, the GI50 [3] was 3.79 µM and the TGI [3] was > 21.8 µM. The GI50 [4] was 1.4 µM, the TGI [4] was > 15.7 µM and the GI50 [5] was 8.15 µM. The TGI [5] was > 25 µM, the GI50 [6] was 4.9 µM and the TGI [6] was > 25 µM. It also gave a GI50 [7] of 2.19 µM, a TGI [7] of 9.18 µM and a GI50 [8] of 4 µM. The TGI [8] was 20 µM, the GI50 [9] was 3.17 µM and the TGI [9] was > 25 µM. For the same compound, the GI50 [10] was 1.35 µM, the TGI [10] was 9.79 µM and the GI50 [11] was 1.26 µM. The TGI [11] was 9.01 µM, the GI50 [12] was 1.01 µM and the TGI [12] was 6.77 µM. It also gave a GI50 [13] of 1.32 µM, a TGI [13] of 13.3 µM and a GI50 [14] of 1.36 µM. For the same compound, the TGI [14] was 10.2 µM, the GI50 [15] was 8.67 µM and the TGI [15] was > 25 µM. It also gave a GI50 [16] of 1.33 µM, a TGI [16] of 11.3 µM and a GI50 [17] of 6.73 µM. For the same compound, the TGI [17] was 22.2 µM, the GI50 [18] was 0.595 µM and the TGI [18] was 3.55 µM. The GI50 [19] was 0.966 µM, the TGI [19] was 9.81 µM and the GI50 [20] was 1.75 µM. The TGI [20] was > 25 µM, the GI50 [21] was 1.11 µM and the TGI [21] was 5.58 µM. For the same compound, the GI50 [22] was 1.39 µM, the TGI [22] was > 25 µM and the GI50 [23] was 1.16 µM. For the same compound, the TGI [23] was > 25 µM, the GI50 [24] was 1.34 µM and the TGI [24] was 6.14 µM. For the same compound, the GI50 [25] was 1.42 µM, the TGI [25] was 6.81 µM and the GI50 [26] was 5.96 µM. For the same compound, the TGI [26] was > 22.1 µM, the GI50 [27] was 1.49 µM and the TGI [27] was 7.18 µM. The GI50 [28] was 5.21 µM, the TGI [28] was > 22.8 µM and the GI50 [29] was 0.904 µM. For the same compound, the TGI [29] was 3.44 µM, the GI50 [30] was 3.09 µM and the TGI [30] was > 23.4 µM. The GI50 [31] was 3.65 µM, the TGI [31] was 11.1 µM and the GI50 [32] was 0.674 µM. The TGI [32] was > 11.2 µM, the GI50 [33] was 2.77 µM and the TGI [33] was 13.8 µM. The GI50 [34] was 3.57 µM, the TGI [34] was 13 µM and the GI50 [35] was 1.52 µM. The TGI [35] was > 25 µM, the GI50 [36] was 2.07 µM and the TGI [36] was > 25 µM. For the same compound, the GI50 [37] was 3.63 µM, the TGI [37] was > 25 µM and the GI50 [38] was 0.927 µM. For the same compound, the TGI [38] was 12.2 µM, the GI50 [39] was 9.25 µM and the TGI [39] was > 25 µM. For the same compound, the GI50 [40] was 3.12 µM, the TGI [40] was 16.8 µM and the GI50 [41] was 3.09 µM. For the same compound, the TGI [41] was > 25 µM, the GI50 [42] was 5.3 µM and the TGI [42] was > 25 µM. For the same compound, the GI50 [43] was 4.4 µM, the TGI [43] was > 21.4 µM and the GI50 [44] was 5.23 µM. The TGI [44] was > 14.9 µM, the GI50 [45] was 1.08 µM and the TGI [45] was > 16.3 µM. For the same compound, the GI50 [46] was 1.92 µM, the TGI [46] was 9.09 µM and the GI50 [47] was 1.97 µM. For the same compound, the TGI [47] was > 25 µM, the GI50 [48] was 1.53 µM and the TGI [48] was > 25 µM. For the same compound, the GI50 [49] was 0.723 µM, the TGI [49] was > 17.8 µM and the GI50 [50] was 3.23 µM. For the same compound, the TGI [50] was > 25 µM, the GI50 [51] was 3.39 µM and the TGI [51] was > 24.2 µM. For the same compound, the GI50 [52] was 2.72 µM, the TGI [52] was > 25 µM and the GI50 [53] was 2.56 µM. The TGI [53] was 13.9 µM, the GI50 [54] was 1.54 µM and the TGI [54] was 4.79 µM. For the same compound, the GI50 [55] was 4 µM, the TGI [55] was > 22.5 µM and the GI50 [56] was 10.8 µM. The TGI [56] was > 25 µM, the GI50 [57] was 1.48 µM and the TGI [57] was 5.07 µM.
